Results: patent US20250205256A1 (GH RESEARCH IRELAND LIMITED, priority 2022, published 2025)
“And” between values parts separate entries of the source, which are not always exact repeats. Identical values can stand only once.

Key:
Type in all cases: in vivo, human
[1] = test system: patient with postpartum depression (PPD); assay: Clinical trial of inhaled 5-MeO-DMT in postpartum depression: safety and tolerability; settings: PPD n=1
Description: (§1) The patient completed all planned visit days.

[2] = test system: patient with postpartum depression (PPD); assay: Clinical trial of inhaled 5-MeO-DMT (IDR, 6 mg then 12 mg) in postpartum depression: BPRS; settings: PPD n=1
Description: as §1

[3] = test system: patients with treatment-resistant major depressive disorder (TRD); assay: Phase 1/2 clinical trial of inhaled 5-MeO-DMT in TRD: BPRS items; settings: for BPRS Emotional Withdrawal score: baseline 13
Description: Patients were assigned to different groups.
The BPRS item that is of particular relevance to negative thinking is “guilt feelings”. This item relates to over concern or remorse for past behaviour. Possible scores are: • 1—No guilt feelings. • 2—Very Mild. Concerned about having failed someone or at something but not preoccupied. Can shift thoughts to other matters easily. • 3—Mild. Concerned about having failed someone or at something with some preoccupation. Tends to voice guilt to others. • 4—Moderate. Disproportionate preoccupation with guilt, having done wrong, injured others by doing or failing to do something, but can readily turn attention to other things. • 5—Moderately Severe. Preoccupation with guilt, having failed someone or at something, can turn attention to other things, but only with great effort. Not delusional. • 6—Severe; Delusional guilt or unreasonable self-reproach very out of proportion to circumstances. Moderate preoccupation present. • 7—Extremely Severe. Delusional guilt or unreasonable self-reproach grossly out of proportion to circumstances. Subject is very preoccupied with guilt and is likely to disclose to others or act on delusions.
This trial was designed in two parts.

[4] = test system: patient with postpartum depression (PPD); assay: Clinical trial of inhaled 5-MeO-DMT in postpartum depression: Barkin Index of Maternal Functioning (BIMF); settings: PPD n=1
Description: Maternal functioning can, for instance, be assessed using the Barkin Index of Maternal Functioning (BIMF). This index was designed to measure functioning in the year after childbirth. The BIMF is a 20-item self-report measure of functioning. Each item is assigned a score between 0 and 6 so that the maximum total score is 120. The higher the score, the better maternal functioning is rated.
The BIMF identifies the key functional domains of a mother during the postnatal period as: self-care, infant care, mother-child interaction, psychological wellbeing of the mother, social support, management, and adjustment.
as §1

[5] = 12 mg n=4 sum, 3 h after dose vs baseline
[6] = 12 mg n=4 sum, Day 1 vs baseline
[7] = 12 mg n=4 sum, Day 7 vs baseline
[8] = IDR n=8 sum, 3 h after last dose vs baseline

## COc1ccc2[nH]cc(CCN(C)C)c2c1 [5-MeO-DMT]
[1]
  reported adverse events (cramping left abdominal pain and headache, Day 0): mild, short-lasting and resolved spontaneously
  tolerability of inhalation procedure: well tolerated with no inhalation-related adverse events
[1]; ECG 3 hours, laboratory 7 days, CADSS 3 hours, 1 day and 7 days
  ECG, safety laboratory analyses, CADSS: unremarkable
[1]; shortly after administration
  changes in vital parameters: temporary, clinically non-relevant increase in heart rate and blood pressure
[2]; Day 1 vs baseline
  BPRS Tension improvement: 5
[2]; Discharge vs baseline
  BPRS Tension improvement: 5
[3]; [5]
  BPRS Anxiety improvement: 14
  BPRS Blunted Affect improvement: 3
  BPRS Emotional Withdrawal improvement: 2
  BPRS Guilt Feelings improvement: 9
  BPRS Guilt Feelings percentage improvement: 50.00%
  BPRS Tension improvement: 5
[3]; 12 mg n=4 sum, 3 h after dose, baseline 11
  BPRS Blunted Affect score: 8
[3]; 12 mg n=4 sum, 3 h after dose
  BPRS Emotional Withdrawal score: 11
[3]; 12 mg n=4 sum, 3 h after dose, baseline 14
  BPRS Tension score: 9
[3]; 12 mg n=4 sum, 3 h after dose, baseline 18
  BPRS Guilt Feelings score: 9
[3]; 12 mg n=4 sum, 3 h after dose, baseline 25
  BPRS Anxiety score: 11
[3]; 12 mg n=4 sum, Day 1, baseline 11
  BPRS Blunted Affect score: 6
[3]; 12 mg n=4 sum, Day 1
  BPRS Emotional Withdrawal score: 8
[3]; 12 mg n=4 sum, Day 1, baseline 14
  BPRS Tension score: 6
[3]; 12 mg n=4 sum, Day 1, baseline 18
  BPRS Guilt Feelings score: 5
[3]; 12 mg n=4 sum, Day 1, baseline 25
  BPRS Anxiety score: 6
[3]; [6]
  BPRS Anxiety improvement: 19
  BPRS Blunted Affect improvement: 5
  BPRS Emotional Withdrawal improvement: 5
  BPRS Guilt Feelings improvement: 13
  BPRS Tension improvement: 8
[3]; 12 mg n=4 sum, Day 7, baseline 11
  BPRS Blunted Affect score: 5
[3]; 12 mg n=4 sum, Day 7
  BPRS Emotional Withdrawal score: 6
[3]; 12 mg n=4 sum, Day 7, baseline 14
  BPRS Tension score: 6
[3]; 12 mg n=4 sum, Day 7, baseline 18
  BPRS Guilt Feelings score: 5
[3]; 12 mg n=4 sum, Day 7, baseline 25
  BPRS Anxiety score: 6
[3]; [7]
  BPRS Anxiety improvement: 19
  BPRS Blunted Affect improvement: 6
  BPRS Emotional Withdrawal improvement: 7
  BPRS Guilt Feelings improvement: 13
  BPRS Tension improvement: 8
[3]; [8]
  BPRS Anxiety improvement: 18
  BPRS Blunted Affect improvement: 4
  BPRS Emotional Withdrawal improvement: 5
  BPRS Guilt Feelings improvement: 20
  BPRS Tension improvement: 5
[3]; IDR n=8 sum, 3 h after last dose
  BPRS Emotional Withdrawal score: 8
[3]; IDR n=8 sum, 3 h after last dose, baseline 15
  BPRS Blunted Affect score: 11
[3]; IDR n=8 sum, 3 h after last dose, baseline 16
  BPRS Tension score: 11
[3]; IDR n=8 sum, 3 h after last dose, baseline 34
  BPRS Guilt Feelings score: 14
[3]; IDR n=8 sum, 3 h after last dose, baseline 37
  BPRS Anxiety score: 19
[3]; IDR n=8 sum, Day 1
  BPRS Emotional Withdrawal score: 8
[3]; IDR n=8 sum, Day 1, baseline 15
  BPRS Blunted Affect score: 8
[3]; IDR n=8 sum, Day 1, baseline 16
  BPRS Tension score: 11
[3]; IDR n=8 sum, Day 1, baseline 34
  BPRS Guilt Feelings score: 11
[3]; IDR n=8 sum, Day 1, baseline 37
  BPRS Anxiety score: 16
[3]; IDR n=8 sum, Day 1 vs baseline
  BPRS Anxiety improvement: 21
  BPRS Blunted Affect improvement: 7
  BPRS Emotional Withdrawal improvement: 5
  BPRS Guilt Feelings improvement: 23
  BPRS Tension improvement: 5
[3]; IDR n=8 sum, Day 7
  BPRS Emotional Withdrawal score: 8
[3]; IDR n=8 sum, Day 7, baseline 15
  BPRS Blunted Affect score: 8
[3]; IDR n=8 sum, Day 7, baseline 16
  BPRS Tension score: 10
[3]; IDR n=8 sum, Day 7, baseline 34
  BPRS Guilt Feelings score: 10
[3]; IDR n=8 sum, Day 7, baseline 37
  BPRS Anxiety score: 17
[3]; IDR n=8 sum, Day 7 vs baseline
  BPRS Anxiety improvement: 20
  BPRS Blunted Affect improvement: 7
  BPRS Emotional Withdrawal improvement: 5
  BPRS Guilt Feelings improvement: 24
  BPRS Tension improvement: 6
[4]; Day 7, from 92 to 105
  BIMF total score improvement, percent: 14%
[4]; Day 7, Day 0 score 3
  BIMF item 16 (I worry about how other people judge me (as a mother)) score: 5
[4]; Day 7, Day 0 score 5
  BIMF item 10 (I trust my own feelings (instincts) when taking care of my baby) score: 6
[4]; Day 7, Day 0 score 5, maximum 12
  BIMF functional domain Adjustment score: 6
[4]; Day 7, Day 0 score 9, maximum 18
  BIMF functional domain Self Care score: 13
[4]; Day 7, Day 0 score 12, maximum 12
  BIMF functional domain Infant Care score: 12
[4]; Day 7, Day 0 score 15, maximum 18
  BIMF functional domain Mother-Child Interaction score: 17
[4]; Day 7, Day 0 score 17, maximum 18
  BIMF functional domain Social Support score: 18
[4]; Day 7, Day 0 score 28, maximum 36
  BIMF functional domain Management score: 33
[4]; Day 7, Day 0 score 44, maximum 60
  BIMF functional domain Psychological Well-being score: 53
[4]; Day 7 vs Day 0
  BIMF TOTAL Δ (Day 7): 13
  BIMF functional domain Adjustment % Improvement: 20.00%
  BIMF functional domain Adjustment Δ (Day 7): 1
  BIMF functional domain Infant Care % Improvement: 0.00%
  BIMF functional domain Infant Care Δ (Day 7): 0
  BIMF functional domain Management % Improvement: 18% and 17.86%
  BIMF functional domain Management Δ (Day 7): 5
  BIMF functional domain Mother-Child Interaction % Improvement: 13.33%
  BIMF functional domain Mother-Child Interaction Δ (Day 7): 2
  BIMF functional domain Psychological Well-being % Improvement: 20.45%
  BIMF functional domain Psychological Well-being Δ (Day 7): 9
  BIMF functional domain Self Care % Improvement: 44% and 44.44%
  BIMF functional domain Self Care Δ (Day 7): 4
  BIMF functional domain Social Support % Improvement: 5.88%
  BIMF functional domain Social Support Δ (Day 7): 1
  BIMF item 1 (I am a good mother) Δ (Day 7): 0
  BIMF item 2 (I feel rested) Δ (Day 7): 2
  BIMF item 3 (comfortable with the way I've chosen to feed my baby) Δ (Day 7): 0
  BIMF item 4 (My baby and I understand each other) Δ (Day 7): 0
  BIMF item 5 (able to relax and enjoy time with my baby) Δ (Day 7): 1
  BIMF item 6 (people I can trust to care for my baby when I need a break) Δ (Day 7): 0
  BIMF item 8 (getting enough adult interaction) Δ (Day 7): 0
  BIMF item 9 (getting enough encouragement from other people) Δ (Day 7): 1
  BIMF item 10 (I trust my own feelings (instincts) when taking care of my baby) Δ (Day 7): 1
  BIMF item 11 (a little time each week to do something for myself) Δ (Day 7): 1
  BIMF item 12 (taking good care of my baby's physical needs) Δ (Day 7): 0
  BIMF item 13 (taking good care of my physical needs) Δ (Day 7): 1
  BIMF item 14 (good decisions about my baby's health and well being) Δ (Day 7): 0
  BIMF item 15 (My baby and I are getting into a routine) Δ (Day 7): 1
  BIMF item 16 (I worry about how other people judge me (as a mother)) Δ (Day 7): 2
  BIMF item 17 (able to take care of my baby and my other responsibilities) Δ (Day 7): 0
  BIMF item 18 (Anxiety or worry often interferes with my mothering ability) Δ (Day 7): 3
  BIMF item 19 (getting better at taking care of my baby) Δ (Day 7): 1
  BIMF item 20 (satisfied with the job I am doing as a new mother) Δ (Day 7): −1
